Measured values taken from patent US11291655B2, “RAD51 inhibitors” (Cyteir Therapeutics, Inc., priority 2017, dated 2022).

Test system: Daudi Cell Culture
Assay: Compound primary screening in Daudi cell culture
Assay type: cell-based
Settings: Homo sapiens, 168 h; Daudi cells, 1250 cells per well, reads on Day 7
How it was run: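 Daudi cells seeded at 1250 cells per well in 130 ul medium at 37° C. and treated with serially diluted compounds added from a media master plate; read on Day 7.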

EC50	Structure (SMILES)
> 10 µM	CC(C)NC(=S)Nc1ccc(-c2ncc(-c3ccc(NC(=O)N(C)Cc4ccccc4)cc3S(=O)(=O)NC(C)(C)C)s2)cc1 [Compound M1]
< 5 µM	CC(C)NC(=S)Nc1ccc(-c2ncc(-c3ccc(NC(=O)NCc4ccncc4)cc3S(=O)(=O)NC(C)(C)C)s2)cc1 [Compound M2]
< 10 µM	CC(C)NC(=S)Nc1ccc(-c2ncc(-c3ccc(NC(=O)NCc4cccnc4)cc3S(=O)(=O)NC(C)(C)C)s2)cc1 [Compound M3]
< 10 µM	CC(C)NC(=S)Nc1ccc(-c2ncc(-c3ccc(NC(=O)NCc4ccccn4)cc3S(=O)(=O)NC(C)(C)C)s2)cc1 [Compound M4]
> 10 µM	CC(C)NC(=S)Nc1ccc(-c2ncc(-c3ccc(NC(=O)NCc4cncnc4)cc3S(=O)(=O)NC(C)(C)C)s2)cc1 [Compound M5]
> 10 µM	CC(C)NC(=S)Nc1ccc(-c2ncc(-c3ccc(NC(=O)NCc4nccs4)cc3S(=O)(=O)NC(C)(C)C)s2)cc1 [Compound M6]
< 10 µM	CC(C)NC(=S)Nc1ccc(-c2ncc(-c3ccc(NC(=O)NC(C)c4ccccc4)cc3S(=O)(=O)NC(C)(C)C)s2)cc1 (centres unmarked) [Compound M7]
< 10 µM	CC(C)NC(=S)Nc1ccc(-c2ncc(-c3ccc(NC(=O)OC(C)c4ccccc4)cc3S(=O)(=O)NC(C)(C)C)s2)cc1 (centres unmarked) [Compound M8]
< 10 µM	CC(C)NC(=S)Nc1ccc(-c2ncc(-c3ccc(NC(=O)NCc4cccc(O)c4)cc3S(=O)(=O)NC(C)(C)C)s2)cc1 [Compound N2]
> 10 µM	CC(C)NC(=S)Nc1ccc(-c2ncc(-c3ccc(NC(=O)NCc4cn[nH]c4)cc3S(=O)(=O)NC(C)(C)C)s2)cc1 [Compound N4]
> 10 µM	CC(C)NC(=S)Nc1ccc(-c2ncc(-c3ccc(NC(=O)NCc4ncc[nH]4)cc3S(=O)(=O)NC(C)(C)C)s2)cc1 [Compound N5]
< 10 µM	CC(C)NC(=S)Nc1ccc(-c2ncc(-c3ccc(NC(=O)NCc4cnc[nH]4)cc3S(=O)(=O)NC(C)(C)C)s2)cc1 [Compound N6]
< 10 µM	CC(C)OC(=O)Nc1ccc(-c2ncc(-c3ccc(CNC(=O)C4CCNCC4)cc3S(=O)(=O)NC(C)(C)C)s2)cc1 [Compound O1]
> 10 µM	COCCC(=O)NCc1ccc(-c2cnc(-c3ccc(NC(=O)OC(C)C)cc3)s2)c(S(=O)(=O)NC(C)(C)C)c1 [Compound O2]
> 10 µM	CC(C)OC(=O)Nc1ccc(-c2ncc(-c3ccc(CNC(=O)CCO)cc3S(=O)(=O)NC(C)(C)C)s2)cc1 [Compound O3]
< 10 µM	CC(C)OC(=O)Nc1ccc(-c2ncc(-c3ccc(CNC(=O)Cc4ccccc4)cc3S(=O)(=O)NC(C)(C)C)s2)cc1 [Compound O4]
< 5 µM	CC(C)OC(=O)Nc1ccc(-c2ncc(-c3ccc(CNC(=O)Cc4ccncc4)cc3S(=O)(=O)NC(C)(C)C)s2)cc1 [Compound O5]

EC50	Structure (SMILES)
> 10 µM	CC(C)OC(=O)Nc1ccc(-c2ncc(-c3ccc(CNC(=O)Cc4cccnc4)cc3S(=O)(=O)NC(C)(C)C)s2)cc1 [Compound O6]
< 5 µM	CC(C)OC(=O)Nc1ccc(-c2ncc(-c3ccc(CNC(=O)c4ccncc4)cc3S(=O)(=O)NC(C)(C)C)s2)cc1 [Compound O7]
< 10 µM	CC(C)OC(=O)Nc1ccc(-c2ncc(-c3ccc(CNC(=O)c4cncnc4)cc3S(=O)(=O)NC(C)(C)C)s2)cc1 [Compound O8]
< 10 µM	CCC(=O)NCc1ccc(-c2cnc(-c3ccc(NC(=O)OC(C)C)cc3)s2)c(S(=O)(=O)NC(C)(C)C)c1 [Compound P1]
< 5 µM	CC(C)OC(=O)Nc1ccc(-c2ncc(-c3ccc(CNC(=O)C(C)C)cc3S(=O)(=O)NC(C)(C)C)s2)cc1 [Compound P2]
> 10 µM	CC(C)OC(=O)Nc1ccc(-c2ncc(-c3ccc(CNC(=O)C(C)(C)C)cc3S(=O)(=O)NC(C)(C)C)s2)cc1 [Compound P3]
> 10 µM	CC(C)OC(=O)Nc1ccc(-c2ncc(-c3ccc(CNC(=O)c4ccccc4)cc3S(=O)(=O)NC(C)(C)C)s2)cc1 [Compound P4]
< 10 µM	CC(C)OC(=O)Nc1ccc(-c2ncc(-c3ccc(CNS(C)(=O)=O)cc3S(=O)(=O)NC(C)(C)C)s2)cc1 [Compound P5]
< 10 µM	CC(C)OC(=O)Nc1ccc(-c2ncc(-c3ccc(CNS(=O)(=O)c4ccccc4)cc3S(=O)(=O)NC(C)(C)C)s2)cc1 [Compound P6]
< 10 µM	COC(=O)NCc1ccc(-c2cnc(-c3ccc(NC(=O)OC(C)C)cc3)s2)c(S(=O)(=O)NC(C)(C)C)c1 [Compound P7]
< 10 µM	CCOC(=O)NCc1ccc(-c2cnc(-c3ccc(NC(=O)OC(C)C)cc3)s2)c(S(=O)(=O)NC(C)(C)C)c1 [Compound P8]
> 10 µM	CC(C)OC(=O)NCc1ccc(-c2cnc(-c3ccc(NC(=O)OC(C)C)cc3)s2)c(S(=O)(=O)NC(C)(C)C)c1 [Compound P9]
< 10 µM	CC(=O)NCc1ccc(-c2cnc(-c3ccc(NC(=O)OC(C)C)cc3)s2)c(S(=O)(=O)NC(C)(C)C)c1 [Compound Q1, isopropyl N-[4-[5-[4-(acetamidomethyl)-2-(tert-butylsulfamoyl)phenyl]thiazol-2-yl]phenyl]carbamate]
> 10 µM	CC(C)OC(=O)Nc1ccc(-c2ncc(-c3ccc(CNC(=O)OCc4ccccc4)cc3S(=O)(=O)NC(C)(C)C)s2)cc1 [Compound Q2, isopropyl N-[4-[5-[4-(benzyloxycarbonylaminomethyl)-2-(tert-butylsulfamoyl)phenyl]thiazol-2-yl]phenyl]carbamate]
< 1 µM	Cc1cc(NC(=O)OC(C)C)ccc1-c1ncc(-c2ccc(NC(=O)OC(C)C)cc2S(=O)(=O)NC(C)(C)C)s1 [Compound R1]
< 5 µM	COc1cc(-c2ncc(-c3ccc(NC(=O)OC(C)C)cc3S(=O)(=O)NC(C)(C)C)s2)ccc1NC(=O)OC(C)C [Compound R3]
< 1 µM	COc1cc(-c2ncc(-c3ccc(NC(=O)OCc4ccccc4)cc3S(=O)(=O)NC(C)(C)C)s2)ccc1NC(=O)OC(C)C [Compound R7]

Structure (SMILES)	EC50
COC(=O)Nc1ccc(-c2cnc(-c3ccc(NC(=S)NC(C)C)cc3)s2)c(S(=O)(=O)NC(C)(C)C)c1 [Compound L7]	> 10 µM
CC(C)OC(=O)Nc1ccc(-c2ncc(-c3ccc(NC(=S)NCc4ccccc4)cc3S(=O)(=O)NC(C)(C)C)s2)cc1 [Compound L8]	< 1 µM
CC(=O)Nc1ccc(-c2cnc(-c3ccc(NC(=S)NCc4ccccc4)cc3)s2)c(S(=O)(=O)NC(C)(C)C)c1 [Compound L9]	< 5 µM
CC(C)NC(=S)Nc1ccc(-c2ncc(-c3ccc(NC(=O)NCc4ccccc4)cc3S(=O)(=O)NC(C)(C)C)s2)cc1 [Compound L10]	< 5 µM
CC(C)NC(=S)Nc1ccc(-c2ncc(-c3ccc(NC(=O)NCc4ccc(O)cc4)cc3S(=O)(=O)NC(C)(C)C)s2)cc1 [Compound N1, N-(tert-butyl)-5-(3-(4-hydroxybenzyl)ureido)-2-(2-(4-(3-isopropylthioureido)phenyl)thiazol-5-yl)benzenesulfonamide]	< 10 µM
CC(C)NC(=S)Nc1ccc(-c2ncc(-c3ccc(N(C)C(=O)NCc4ccccc4)cc3S(=O)(=O)NC(C)(C)C)s2)cc1 [Compound Q3]	< 1 µM
CC(C)NC(=S)Nc1ccc(-c2ncc(-c3ccc(N(C)C(=O)N(C)Cc4ccccc4)cc3S(=O)(=O)NC(C)(C)C)s2)cc1 [Compound Q4]	< 1 µM
